Source: patent publication US20160296590A1, “METHOD OF TREATING OR PREVENTING EPILEPSY OR SEIZURES USING ONE OR MORE NEURAL REGENERATION PEPTIDES” (CURONZ HOLDINGS COMPANY LIMITED, priority 2013, published 2016)
Entries after “also recorded” stand apart in the source; their conditions may differ. Where no end group is shown, it is not given here. [ ]: non-standard residue; d: D form. Aib = CC(C)(N)C(=O)O

How the values were obtained:
Assay type in all cases: in vivo, rat
PTZ-induced seizures = test: Behavioural test of PTZ-induced seizure attacks; conditions: for Behavioural test Severity: seizure score 0-6
Method: Adult male wistar rats (200-250g) were housed under controlled conditions (ambient temperature=22° C., humidity=40%; 12-h light/dark cycle) with food and water ad libitum. Animals were age- and weight-matched and randomly received by intra peritoneal injection NRP2945 in saline (5, 10 or 20 μg/kg) or saline alone (control) thirty minutes before the i.p. injection of pentylenetetrazol (PTZ; 50 mg/kg dissolved in 0.9% saline). All experiments were carried out according to the protocol approved by the Animal Ethics Committee of Shefa Neuroscience Center, Tehran, Iran. After each PTZ-injection, the convulsive behaviour of each rat was assessed for 30 min, and resultant seizures were scored as follows: 0=normal behaviour; 1=immobility; 2=rigid posture; 3=repetitive scratching, circling, or head bobbing; 4=forelimb clonus, rearing, and falling; 5=repeated occurrence of level four behaviour, 6=severe tonic-clonic behaviour or status epilepticus (Karimzadeh et al., 2013). Latency of seizure onset was defined as the average length of time in seconds between PTZ administration an initially detectable and seizure. A generalized seizure was characterised by symmetric forelimb and hind limb tonus, followed by hind limb clonus and subsequent jumping activity. Because some animals occasionally had more than one seizure, the seizure duration was assessed as the sum of durations of these multiple seizures.

[1] = test system: PTZ-induced epileptiform burst discharges; test: Electrocorticogram (ECoG) recording of PTZ-induced epileptiform burst discharges
Method: Adult male wistar rats (200-250g) were housed under controlled conditions (ambient temperature=22° C., humidity=40%; 12-h light/dark cycle) with food and water ad libitum. Animals were age- and weight-matched and randomly received by intra peritoneal injection NRP2945 in saline (5, 10 or 20 μg/kg) or saline alone (control) thirty minutes before the i.p. injection of pentylenetetrazol (PTZ; 50 mg/kg dissolved in 0.9% saline). All experiments were carried out according to the protocol approved by the Animal Ethics Committee of Shefa Neuroscience Center, Tehran, Iran. Animals were anaesthetized with chloral hydrate 3.5% (dissolved in normal 0.9% saline; Sigma-Aldrich) and the head of each rat was placed in a stereotaxical instrument (Stoelting Instruments, USA). Epidural recording electrodes were stereotaxically implanted above the left and right somatosensory cortices (3.0 mm posteriorly to Bregma and 3.0 mm laterally from the midline) under continuous chloral hydrate anesthesia. The reference electrode is located at the nasal bone. ECoG was recorded via monopolar silver electrodes connected to an amplifier (EXT-02 F, NPI, Germany; with band-pass filters at […], sampling rate 10 kHz) and stored by a digital oscilloscope. ECoG recordings were performed for 30 minutes after receiving saline or NRP2945 (5, 10, 20 μg/kg) and 30 minutes after the injection of PTZ. Latency, duration, amplitude, and frequency of epileptic spikes activity were calculated using AxoScope 10 software (Axon Instruments, CA, USA).

dark neurons = test: Dark neuron count (toluidine blue, physical dissector) after PTZ-induced seizures; conditions: hippocampal CA1 and CA3 areas and somatosensory cortex, 5, 10 and 20 μg/kg
Method: (§1) Adult male wistar rats (200-250g) were housed under controlled conditions (ambient temperature=22° C., humidity=40%; 12-h light/dark cycle) with food and water ad libitum. Animals were age- and weight-matched and randomly received by intra peritoneal injection NRP2945 in saline (5, 10 or 20 μg/kg) or saline alone (control) thirty minutes before the i.p. injection of pentylenetetrazol (PTZ; 50 mg/kg dissolved in 0.9% saline). All experiments were carried out according to the protocol approved by the Animal Ethics Committee of Shefa Neuroscience Center, Tehran, Iran.
The volume-weighted mean volume of normal neurons was calculated directly by point-sampled intercept on 10 uniform systematically and randomly sampled microscopic fields of the pyramidal layers of hippocampal areas CA1 and CA3as well as the somatosensory cortex. A lattice of test points on lines was superimposed randomly onto the traced nuclear profiles in each particular field. […] These lines produced point-sampled intercepts, the lengths of which were measured and cubed. […] For quantitative analysis of dark neurons, the physical dissector method was used. […]
Animals were deeply anaesthetised with chloral hydrate (3.5%; Sigma-Aldrich) and perfused transcardially with 200 ml of saline followed by 200 ml of a solution containing 1% paraformaldehyde (PFA). […] The magnification was calculated using an objective micrometer.

normal neurons = test: Volume-weighted mean volume of normal neurons (stereology) after PTZ-induced seizures; parameters: Mean volume of normal neurons CA1 / Mean volume of normal neurons CA3 / Mean volume of normal neurons Cortex: unit not given here; conditions: for Mean volume of normal neurons CA1: hippocampal CA1; for Mean volume of normal neurons CA1 / Mean volume of normal neurons CA3 / Mean volume of normal neurons Cortex: rats; for Mean volume of normal neurons CA3: hippocampal CA3; for Mean volume of normal neurons Cortex: somatosensory cortex
Method: as §1
The volume-weighted mean volume of normal neurons was calculated directly by point-sampled intercept on 10 uniform systematically and randomly sampled microscopic fields of the pyramidal layers of hippocampal areas CA1 and CA3as well as the somatosensory cortex. A lattice of test points on lines was superimposed randomly onto the traced nuclear profiles in each particular field. Nuclei of neurons were marked and two isotropic lines from randomly selected directions were centred on this neuron and superimposed. The intersection of each line with the outer surface of the respective neuron's soma was marked. These lines produced point-sampled intercepts, the lengths of which were measured and cubed. The mean was multiplied by […], and finally all intercepts were averaged to give an estimate of the volume-weighted mean neuronal volume. For quantitative analysis of dark neurons, the physical dissector method was used. Ten pairs of sections, with […] distance, were collected from each brain. The first section of each pair was designated as the reference and the second one was used for comparison. On each pair of sections, at least 10 microscopic fields were selected by uniform systematic-random sampling in every area of interest. Using the unbiased frame and physical dissector counting rule, the counting of dark neurons in each field was carried out (Jafarian et al., 2010).
Animals were deeply anaesthetised with chloral hydrate (3.5%; Sigma-Aldrich) and perfused transcardially with 200 ml of saline followed by 200 ml of a solution containing 1% paraformaldehyde (PFA). After perfusion, all rats were decapitated and the brains were removed. The brains were kept in 1% PFA for at least 10 days and were then processed for histological studies as follows. The brain was cut into transverse sections of 8 µm thickness. Sections were stained with toluidine blue. The sections were selected by uniform systematic random sampling in every area of interest. Different areas (hippocampal CA1 and CA3 areas and somatosensory neocortex) were studied under a light microscope (BX51, Olympus, Japan) equipped with a digital camera. Digital photographs were taken using a 40x oil immersion objective lens (Olympus, Japan). The magnification was calculated using an objective micrometer.

GABAA receptor α subunit = test: Immunohistochemistry of GABAA receptor α subunit expression after PTZ injection; conditions: 20 μg/kg; somatosensory cortex and hippocampal CA1 area; P<0.001
Method: as §1
(§2) Animals were deeply anaesthetized with chloral hydrate and perfused transcardially with 200 ml of saline followed by 600 ml of 4% PFA solution. The brains were extracted and kept in 4% PFA for at least 4 days at 4° C. and were then processed for immunohistochemistry studies. The serial (8 μm) coronal sections were prepared. Three paraffin embedded sections in 1.8 to 3.3 mm posterior to the bregma from each animal were cleared and rehydrated through a series of xylol and alcohol and washed with phosphate buffered saline (PBS) three times and incubated in blockage solution (3% H2O2/methanol for 5 min). After washing in PBS, slides were boiled in sodium citrate buffer at 95° C, for 10 min. […]

GABAA receptor β subunit = test: Immunohistochemistry of GABAA receptor β subunit expression after PTZ injection; conditions: 20 μg/kg; only CA1 hippocampal region; P<0.001
Method: as §1, §2

GAD-65 = test: Immunohistochemistry of GAD-65 expression after PTZ injection; conditions: 20 μg/kg; somatosensory cortex, CA1 and CA3 hippocampal areas; P<0.001
Method: as §1, §2

[2] = 5 μg/kg i.p. 30 min before PTZ, rats
[3] = 10 μg/kg i.p. 30 min before PTZ, rats
[4] = 5 μg/kg i.p. 30 min before PTZ, anaesthetized rats
[5] = 10 μg/kg i.p. 30 min before PTZ, anaesthetized rats

GlyArgArgAlaAlaProGlyArgAibGlyGly (GRRAAPGR[Aib]GG) [NRP2945, 11-residue neural regeneration peptide, derived from amino acid position 40-50 of human CAPS2]
Behavioural test Latency (PTZ-induced seizures; 5 μg/kg i.p. 30 min before PTZ 50 mg/kg i.p., rats): 230.2 ± 10.6 s
Behavioural test Duration (PTZ-induced seizures; [2]): 35.83 ± 5.9 s
Behavioural test Severity (PTZ-induced seizures; [2]): 3.67 ± 0.21
Behavioural test Latency (PTZ-induced seizures; 10 μg/kg i.p. 30 min before PTZ 50 mg/kg i.p., rats): 150.2 ± 7.4 s
Behavioural test Duration (PTZ-induced seizures; [3]): 37.67 ± 7.3 s
Behavioural test Severity (PTZ-induced seizures; [3]): 3.67 ± 0.21
PTZ-induced seizures or convulsions (PTZ-induced seizures; 20 μg/kg i.p. 30 min before PTZ, rats): completely prevented
latency of seizure attacks compared to control (PTZ-induced seizures; 5 and 10 μg/kg i.p.): not affecting
severity of seizure attacks compared to control (PTZ-induced seizures; 5 and 10 μg/kg i.p.): not affecting
total duration of seizure attacks compared to control (PTZ-induced seizures; 5 and 10 μg/kg i.p., p<0.05, n=12): reduced
ECoG Amplitude [1, 4]: 1.1 ± 0.04 mV
ECoG Duration [1, 4]: 60 ± 1.2 s
ECoG Frequency [1, 4]: 4.7 ± 0.3 per min
ECoG Latency [1, 4]: 326 ± 24 s
ECoG Amplitude [1, 5]: 0.84 ± 0.1 mV
ECoG Duration [1, 5]: 60 ± 2.1 s
ECoG Frequency [1, 5]: 6.67 ± 0.9 per min
ECoG Latency [1, 5]: 417 ± 37 s
development of epileptiform field potentials ([1]; 20 μg/kg i.p. 30 min before PTZ, anaesthetized rats): completely prevented
amplitude of epileptiform field potentials compared to control ([1]; 5 and 10 μg/kg i.p., P≦0.001): significantly smaller; also recorded: decreased
duration of epileptiform field potentials compared to control ([1]; 5 and 10 μg/kg i.p., P≦0.001): significantly shorter; also recorded: decreased
latency time to onset of first spike waves compared to control ([1]; 5 and 10 μg/kg i.p., P≦0.001): increased
repetition rate (frequency) of epileptiform field potentials compared to control ([1]; 5 and 10 μg/kg i.p., P≦0.001): significantly lower; also recorded: decreased
Density (production) of dark neurons in comparison to saline (dark neurons): significantly decreased
Density (production) of dark neurons in comparison to saline (dark neurons; listed as NRP 2945): inhibited
mean volume of normal neurons after PTZ-induced seizures compared to control (normal neurons; 5 μg/kg): did not affect
mean volume-weighted volume of normal neurons compared to control (normal neurons; 10 and 20 μg/kg, CA1, CA3 and somatosensory cortex, P≦0.001): higher; also recorded: larger
Mean volume of normal neurons CA1 (normal neurons; 5 μg/kg i.p. before PTZ): 380.9 ± 7.1
Mean volume of normal neurons CA1 (normal neurons; 10 μg/kg i.p. before PTZ): 413.1 ± 4.4
Mean volume of normal neurons CA1 (normal neurons; 20 μg/kg i.p. before PTZ): 451.9 ± 5.5
Mean volume of normal neurons CA3 (normal neurons; 5 μg/kg i.p. before PTZ): 387.9 ± 3.2
Mean volume of normal neurons CA3 (normal neurons; 10 μg/kg i.p. before PTZ): 438.6 ± 5.6
Mean volume of normal neurons CA3 (normal neurons; 20 μg/kg i.p. before PTZ): 474.1 ± 5.1
Mean volume of normal neurons Cortex (normal neurons; 5 μg/kg i.p. before PTZ): 340.8 ± 3.1
Mean volume of normal neurons Cortex (normal neurons; 10 μg/kg i.p. before PTZ): 395.7 ± 6.1
Mean volume of normal neurons Cortex (normal neurons; 20 μg/kg i.p. before PTZ): 387.9 ± 7.5
expression of GABAA receptor α subunit compared to control (GABAA receptor α subunit): higher expression; also recorded: significant enhancement
expression of GABAA receptor β subunit compared to control (GABAA receptor β subunit): higher; also recorded: enhanced
expression of GAD-65 immunoreactive neurons compared to control (GAD-65): significantly higher; also recorded: significant increase
